Laboratory results taken from PubChem BioAssay AID2384 (Southern Research Specialized Biocontainment Screening …, 2010).
Several values for one entry are separate records, joined by “and”; a condition that tells them apart may be missing. Equal entries are not always repeated.

Each compound was assayed on S. typhi GFP reporter counter-screen, fluorescence, 4 h (assay: inhibitors in S. typhi counter-screen strain, dose response, counter-screen for PhoP regulon inhibitor project, fluorescence, 4 h (AID 2384)).

Row | SMILES | IC50
1 | CCOC(=O)c1c(-c2ccccc2)oc2ccc(OCC(O)CNCCN(C)C)cc12 (stereo unspecified) | 36.8 µM
2 | CCSc1ccc2c(c1)N(CCCN1CCN(C)CC1)c1ccccc1S2 | 71.2 µM
3 | c1ccc(CN2CCC(Nc3nc(-c4ccccc4)nc4ccccc34)CC2)cc1 | 38 µM
4 | COc1cc(Br)cc(/C=N/c2ncn[nH]2)c1O | 61.3 µM
5 | CCCCC(=O)NC(=S)NNC(=O)CC | 62.2 µM
6 | O=C(Cn1cnc2ccccc21)Nc1ccc(SC(F)F)cc1 | 143 µM
7 | CCOC(=O)N1CCN(CCC(=O)c2ccc(Br)cc2)CC1 | 82.3 µM
8 | OCCCNc1c2ccccc2nc2ccccc12 | 109 µM
9 | CCc1ccc(CNCc2ccc(OCC(O)CN(C)Cc3ccccc3)cc2)nc1 (stereo unspecified) | 67.6 µM
10 | CC(NCc1ccc(Cl)c(Cl)c1)C(O)c1ccccc1 (stereo unspecified) | 29.8 µM
11 | CCN(CCNCC(O)COc1ccccc1C(C)C)c1cccc(C)c1 (stereo unspecified) | 37.7 µM
12 | CN1CCN(C2Cc3ccc(Cl)cc3Sc3ccc(F)cc32)CC1 (stereo unspecified) | 19.9 µM
13 | O=C(N/N=C/C1CC=CCC1)c1cc(Br)ccc1O (stereo unspecified) | 123 µM
14 | COc1ccc(NC(=O)c2[nH]ncc2[N+](=O)[O-])cc1 | 133 µM
15 | Fc1ccc(Nc2c3c(nc4ccccc24)CCC3)cc1 | 47 µM
16 | CCOC(=O)Cn1c(=N)n(CCOc2ccc3ccccc3c2)c2ccccc21 | 37.2 µM
17 | O=C1CN(/N=C/c2ccc([N+](=O)[O-])o2)C(=O)N1 | 41.6 µM
18 | CCCCCCCCCC[N+](C)(C)CC/C=C1/c2ccccc2Sc2ccc(Cl)cc21 | 14 µM
19 | Oc1ccc(C[C@H]2CNCCN2CCCCC2CCCCC2)cc1 | 70.5 µM
20 | c1ccc(Nc2nc(NCC3CCCO3)c3ccccc3n2)cc1 (stereo unspecified) | 26 µM
21 | CNCC[C@H](Oc1cccc2ccccc12)c1cccs1 | 48.1 µM
22 | Nc1nc(Nc2cccc(F)c2)nc2ccccc12 | 22.5 µM
23 | COc1cc(C)c(Cc2cnc(N)nc2N)cc1OC | 5.98 µM

Row | SMILES | IC50
24 | CC(C(=O)NC1C=CS(=O)(=O)C1)N1C(=O)/C(=C/c2ccc(Cl)cc2)SC1=S (stereo unspecified) | 30.3 µM
25 | Cc1cccc2sc(N(CCCN(C)C)C(=O)COc3ccc(Cl)cc3)nc12 | 37.6 µM
26 | NC1=NC[C@@H](Cc2ccc(O)cc2)N1CCc1cc(C(F)(F)F)cc(C(F)(F)F)c1 | 41.7 µM
27 | Fc1ccccc1CCNCc1ccccc1 | 34.4 µM
28 | Cc1ccc(C(=O)N/N=C\c2ccc([N+](=O)[O-])s2)cn1 | 19.8 µM
29 | O=C(CCN1CCN(c2ccccc2)CC1)c1ccc(Br)cc1 | 70.1 µM
30 | Cc1cc([N+](=O)[O-])nn1CC(=O)N/N=C/c1ccccc1O | 35.3 µM
31 | O=c1ccc2cc3c([nH]c4ccc(Br)cc43)oc-2c1O | 18.2 µM
32 | O=C(C[n+]1cccc(CNC(=O)c2ccc(OC(F)F)cc2)c1)Nc1ccc(SC(F)F)cc1 | 78.6 µM
33 | COc1ccccc1Nc1nc(NCc2ccco2)c2ccccc2n1 | 56.3 µM
34 | Nc1nnc(-c2cccc(Cl)c2Cl)c(N)n1 | 25.8 µM
35 | NC(=NCCCCCCN=C(N)/N=C(\N)Nc1ccc(Cl)cc1)/N=C(\N)Nc1ccc(Cl)cc1 | 5.2 µM and 5.4 µM and 5.13 µM
36 | CCCCCNc1nc(N2CCCC2)c2c(c1C#N)CCN(C)C2 | 36.3 µM
37 | [O-][n+]1c2c(c3c4non(O)c4ccc31)CCCC2 | 79.2 µM
38 | CCN(CC)CCn1c(=N)n(CC(O)COc2cccc(C)c2)c2ccccc21 (stereo unspecified) | 23.3 µM
39 | Clc1ccc(C[n+]2cc(-c3ccc(Cl)cc3)n3c2CCC3)cc1 | 37.7 µM
40 | COc1ccccc1N1CCN(Cc2ccc(O)c3ncccc23)CC1 | 32.5 µM
41 | CCCCCCCCCCOC(=O)Cn1c(COc2ccccc2C)[n+](C)c2ccccc21 | 10.4 µM
42 | Cc1ccc(Cn2c(=N)n(CC(O)COc3ccccc3)c3ccccc32)cc1 (stereo unspecified) | 37.9 µM
43 | CN1CCN(C2Cc3cc(F)ccc3Sc3ccc(Cl)cc32)CC1 (stereo unspecified) | 34.6 µM
44 | C=C1c2cccc(O)c2C(O)=C2C(=O)[C@]3(O)C(O)=C(C(N)=O)C(=O)[C@@H](N(C)C)[C@@H]3[C@@H](O)[C@H]12 | < 0.23 µM
45 | CCOC(=O)N1CCN(CCC(=O)c2ccc(Cl)cc2)CC1 | 66.6 µM
46 | C[C@H]1COc2c(N3CCN(C)CC3)c(F)cc3c(=O)c(C(=O)O)cn1c23 | 0.69 µM
